Results on 25 molecules are retold here after patent US9493448B2, “Cycloalkane derivatives” (Daiichi Sankyo Company, Limited, priority 2012, dated 2016).

Structures are written as SMILES.

In general, IC50 refers to the concentration at which inhibition is half-maximal.

In test [1] the target is hNav 1.7 (Homo sapiens (Human), UniProt Q15858). Put plainly: Electrophysiological evaluation, automated patch clamp IonWorks Quattro (Population Patch Clamp mode). It is filed as cell-based. As to conditions: HEK293A cells stably expressing hNav 1.7/β1/β2; response to second depolarization pulse, pre-pulse potential set to V1/2; read-out: hNav1.7 IC50.
Chain of hNav 1.7 (Q15858 whole entry): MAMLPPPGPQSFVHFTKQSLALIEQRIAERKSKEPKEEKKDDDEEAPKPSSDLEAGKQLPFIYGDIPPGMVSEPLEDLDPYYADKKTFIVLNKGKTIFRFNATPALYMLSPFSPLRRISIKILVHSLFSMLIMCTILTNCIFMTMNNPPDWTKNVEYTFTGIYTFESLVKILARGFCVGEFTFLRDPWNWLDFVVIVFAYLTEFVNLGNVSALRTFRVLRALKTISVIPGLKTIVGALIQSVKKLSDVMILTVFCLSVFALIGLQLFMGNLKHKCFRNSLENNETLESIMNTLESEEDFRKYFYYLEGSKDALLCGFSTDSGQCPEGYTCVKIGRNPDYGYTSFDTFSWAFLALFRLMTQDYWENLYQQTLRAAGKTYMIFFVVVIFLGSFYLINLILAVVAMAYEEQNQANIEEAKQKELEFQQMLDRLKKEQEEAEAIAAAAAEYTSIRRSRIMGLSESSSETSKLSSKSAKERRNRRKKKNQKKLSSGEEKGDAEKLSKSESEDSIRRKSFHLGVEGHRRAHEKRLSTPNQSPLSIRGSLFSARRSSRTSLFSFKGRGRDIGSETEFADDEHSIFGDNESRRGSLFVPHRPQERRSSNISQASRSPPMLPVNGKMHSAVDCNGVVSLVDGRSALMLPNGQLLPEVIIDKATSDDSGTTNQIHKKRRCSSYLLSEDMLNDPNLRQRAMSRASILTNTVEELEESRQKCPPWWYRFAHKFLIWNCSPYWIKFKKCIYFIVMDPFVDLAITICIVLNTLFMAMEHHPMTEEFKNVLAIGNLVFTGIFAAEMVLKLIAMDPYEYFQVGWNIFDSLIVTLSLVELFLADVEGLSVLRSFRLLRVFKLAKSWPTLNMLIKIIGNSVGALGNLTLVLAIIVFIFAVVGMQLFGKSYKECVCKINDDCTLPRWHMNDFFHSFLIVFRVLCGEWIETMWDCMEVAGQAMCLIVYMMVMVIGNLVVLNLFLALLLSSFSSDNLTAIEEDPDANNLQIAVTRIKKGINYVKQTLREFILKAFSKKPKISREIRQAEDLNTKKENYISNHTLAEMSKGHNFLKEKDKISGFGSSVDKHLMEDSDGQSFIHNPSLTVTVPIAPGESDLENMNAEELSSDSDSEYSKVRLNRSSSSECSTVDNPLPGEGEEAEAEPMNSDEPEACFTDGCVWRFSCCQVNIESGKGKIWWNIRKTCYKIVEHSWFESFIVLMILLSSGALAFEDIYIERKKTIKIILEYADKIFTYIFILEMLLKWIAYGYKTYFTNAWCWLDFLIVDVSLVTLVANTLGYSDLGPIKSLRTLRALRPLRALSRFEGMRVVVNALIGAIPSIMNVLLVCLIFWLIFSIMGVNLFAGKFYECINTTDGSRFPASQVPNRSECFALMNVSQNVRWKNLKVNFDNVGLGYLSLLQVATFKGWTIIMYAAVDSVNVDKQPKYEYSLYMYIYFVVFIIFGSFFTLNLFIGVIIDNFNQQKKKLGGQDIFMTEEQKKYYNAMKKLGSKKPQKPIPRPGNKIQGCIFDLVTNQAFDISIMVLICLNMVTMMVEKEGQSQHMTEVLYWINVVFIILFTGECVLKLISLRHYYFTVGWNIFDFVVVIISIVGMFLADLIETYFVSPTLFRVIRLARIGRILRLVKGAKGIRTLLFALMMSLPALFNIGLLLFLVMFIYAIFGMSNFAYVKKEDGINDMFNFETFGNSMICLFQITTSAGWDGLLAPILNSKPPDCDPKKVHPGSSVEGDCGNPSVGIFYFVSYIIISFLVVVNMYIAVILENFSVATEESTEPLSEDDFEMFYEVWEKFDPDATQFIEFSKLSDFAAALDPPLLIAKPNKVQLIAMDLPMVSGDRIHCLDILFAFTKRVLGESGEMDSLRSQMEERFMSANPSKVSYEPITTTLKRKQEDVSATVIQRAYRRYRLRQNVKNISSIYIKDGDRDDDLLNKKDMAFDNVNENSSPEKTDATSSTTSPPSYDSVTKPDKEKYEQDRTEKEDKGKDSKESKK
Chain of hNav 1.7 (Q07699 19-218 partner): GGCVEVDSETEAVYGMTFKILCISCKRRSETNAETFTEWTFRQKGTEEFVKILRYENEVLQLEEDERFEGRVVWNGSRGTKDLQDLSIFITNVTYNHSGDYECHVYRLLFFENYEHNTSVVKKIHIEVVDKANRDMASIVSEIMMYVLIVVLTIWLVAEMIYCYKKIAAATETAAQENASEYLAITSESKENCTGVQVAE
Chain of hNav 1.7 (O60939 30-215 partner): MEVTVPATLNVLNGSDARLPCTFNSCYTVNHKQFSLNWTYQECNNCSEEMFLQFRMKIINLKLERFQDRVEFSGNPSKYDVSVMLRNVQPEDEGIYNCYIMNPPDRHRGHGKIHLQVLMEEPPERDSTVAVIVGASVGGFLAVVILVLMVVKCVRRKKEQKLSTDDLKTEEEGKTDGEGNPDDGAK
The test system of test [2] is mice and rats affected by thermal hyperalgesia. Put plainly: Thermal hyperalgesia assay.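 Also: measurement times set by the study director and not disclosed.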 The format is in vivo. As to conditions: oral administration, constant dose, against the vehicle treatment group; latency to escape behaviors after thermal stimulation of hind paw.

`Cn1nccc1[C@H]1CCC[C@@H]1Oc1ccc(S(=O)(=O)Nc2ccncn2)cc1Cl` (relative stereo) [Example 23, 3-Chloro-4-({[(1S*,2R*)-2-(1-methyl-1H-pyrazol-5-yl)cyclopentyl]oxy}-N-(pyrimidin-4-yl)benzenesulfonamide]: the IC50 in test [1] is 130 nM. In addition, the “Ratio of improving pain score (%)” value in test [2] is on record as “A (“A” when the rate was 61 to 100%)”.

Consider `CCn1nccc1[C@H]1CCCC[C@@H]1Oc1cc(F)c(S(=O)(=O)Nc2ccncn2)cc1F` (relative stereo) [Example 28, 4-{[(1S*,2R*)-2-(1-Ethyl-1H-pyrazol-5-yl)cyclohexyl]oxy}-2,5-difluoro-N-(pyrimidin-4-yl)benzenesulfonamide], for which, in test [1], the 50% inhibitory concentration (IC50) amounted to 46 nM. The “Ratio of improving pain score (%)” value in test [2] is “C (“C” when the rate was 0 to 30%)”.

In the case of `Cn1nccc1[C@H]1CCC[C@@H]1Oc1ccc(S(=O)(=O)Nc2ccncn2)c(F)c1` (relative stereo) [Example 29, 2-Fluoro-4-{[(1S*,2R*)-2-(1-methyl-1H-pyrazol-5-yl)cyclopentyl]oxy}-N-(pyrimidin-4-yl)benzenesulfonamide], in test [1], the half-maximal inhibitory concentration (IC50) was determined as 1800 nM. In test [2], the “Ratio of improving pain score (%)” value is “A (“A” when the rate was 61 to 100%)”.

Consider `O=S(=O)(Nc1ccncn1)c1cc(F)c(O[C@H]2CCCC[C@@H]2c2cn[nH]c2)cc1F` (relative stereo) [Example 33, 2,5-Difluoro-4-{[(1S*,2R*)-2-(1H-pyrazol-4-yl)cyclohexyl]oxy}-N-(pyrimidin-4-yl)benzenesulfonamide], for which the half-maximal inhibitory concentration (IC50) in test [1] amounted to 300 nM. For the same molecule, in test [2], the “Ratio of improving pain score (%)” value is listed as “A (“A” when the rate was 61 to 100%)”.

As to `Nc1cc([C@H]2CCCC[C@@H]2Oc2cc(F)c(S(=O)(=O)Nc3ccncn3)cc2F)ccn1` (relative stereo) [Example 35, 4-{[(1S*,2R*)-2-(2-Aminopyridin-4-yl)cyclohexyl]oxy}-2,5-difluoro-N-(pyrimidin-4-yl)benzenesulfonamide], in test [1], the IC50 turned out to be 99 nM. Moreover, in test [2], the “Ratio of improving pain score (%)” value was “B (“B” when the rate was 31 to 60%)”.

For the molecule `CCn1nccc1[C@H]1CCC[C@@H]1Oc1cc(F)c(S(=O)(=O)Nc2ccncn2)cc1F` (relative stereo) [Example 37, 4-{[(1S*,2R*)-2-(1-Ethyl-1H-pyrazol-5-yl)cyclopentyl]oxy}-2,5-difluoro-N-(pyrimidin-4-yl)benzenesulfonamide], the concentration for half-maximal inhibition (IC50) in test [1] turned out to be 210 nM. In addition, the “Ratio of improving pain score (%)” value in test [2] is on record as “C (“C” when the rate was 0 to 30%)”.

For `CCn1nccc1[C@H]1CCC[C@@H]1Oc1ccc(S(=O)(=O)Nc2ccncn2)c(F)c1F` (relative stereo) [Example 38, 4-{[(1S*,2R*)-2-(1-Ethyl-1H-pyrazol-5-yl)cyclopentyl]oxy}-2,3-difluoro-N-(pyrimidin-4-yl)benzenesulfonamide], in test [1], the half-maximal inhibitory concentration (IC50) was found to be 240 nM. For the same molecule, the “Ratio of improving pain score (%)” value in test [2] is reported as “A (“A” when the rate was 61 to 100%)”.

As for `Cn1nccc1[C@H]1CCCC[C@@H]1Oc1ccc(S(=O)(=O)Nc2ccncn2)c(F)c1F` (relative stereo) [Example 40, 2,3-Difluoro-4-{[(1S*,2R*)-2-(1-methyl-1H-pyrazol-5-yl)cyclohexyl]oxy}-N-(pyrimidin-4-yl)benzenesulfonamide], the half-maximal inhibitory concentration (IC50) in test [1] stood at 330 nM. In test [2], the “Ratio of improving pain score (%)” value is “A (“A” when the rate was 61 to 100%)”.

With `CCn1nccc1[C@H]1CCCC[C@@H]1Oc1ccc(S(=O)(=O)Nc2ccncn2)c(F)c1F` (relative stereo) [Example 41, 4-{[(1S*,2R*)-2-(1-Ethyl-1H-pyrazol-5-yl)cyclohexyl]oxy}-2,3-difluoro-N-(pyrimidin-4-yl)benzenesulfonamide], the IC50 in test [1] was determined as 160 nM. For the same molecule, the “Ratio of improving pain score (%)” value in test [2] is “B (“B” when the rate was 31 to 60%)”.

As to `Cn1nccc1[C@H]1CCCCC[C@@H]1Oc1cc(F)c(S(=O)(=O)Nc2ccncn2)cc1F` (relative stereo) [Example 42, 2,5-Difluoro-4-{[(1S*,2R*)-2-(1-methyl-1H-pyrazol-5-yl)cycloheptyl]oxy}-N-(pyrimidin-4-yl)benzenesulfonamide], in test [1], the IC50 is 91 nM. Moreover, the “Ratio of improving pain score (%)” value in test [2] is “C (“C” when the rate was 0 to 30%)”.

For the molecule `Cn1nccc1[C@H]1CCCC[C@@H]1Oc1ccc(S(=O)(=O)Nc2ccncn2)c(F)c1` (relative stereo) [Example 44, 2-Fluoro-4-{[(1S*,2R*)-2-(1-methyl-1H-pyrazol-5-yl)cyclohexyl]oxy}-N-(pyrimidin-4-yl)benzenesulfonamide], the IC50 in test [1] amounted to 330 nM. Moreover, the “Ratio of improving pain score (%)” value in test [2] was “C (“C” when the rate was 0 to 30%)”.

Turning to `CCn1nccc1[C@H]1CCCC[C@@H]1Oc1ccc(S(=O)(=O)Nc2ccncn2)c(F)c1` (relative stereo) [Example 45, 4-{[(1S*,2R*)-2-(1-Ethyl-1H-pyrazol-5-yl)cyclohexyl]oxy}-2-fluoro-N-(pyrimidin-4-yl)benzenesulfonamide], in test [1], the IC50 is 190 nM. Further, the “Ratio of improving pain score (%)” value in test [2] was “C (“C” when the rate was 0 to 30%)”.

As to `Cn1nccc1[C@H]1CCC(F)(F)C[C@@H]1Oc1cc(F)c(S(=O)(=O)Nc2ccncn2)cc1F` (relative stereo) [Example 47, 4-{[(1S*,2R*)-5,5-Difluoro-2-(1-methyl-1H-pyrazol-5-yl)cyclohexyl]oxy}-2,5-difluoro-N-(pyrimidin-4-yl)benzenesulfonamide], in test [1], the 50% inhibitory concentration (IC50) amounted to 120 nM. In test [2], the “Ratio of improving pain score (%)” value was “A (“A” when the rate was 61 to 100%)”.

Turning to `CCn1nccc1[C@H]1CCC[C@@H]1Oc1cc(F)c(S(=O)(=O)Nc2ccncn2)c(F)c1` (relative stereo) [Example 50, 4-{[(1S*,2R*)-2-(1-Ethyl-1H-pyrazol-5-yl)cyclopentyl]oxy}-2,6-difluoro-N-(pyrimidin-4-yl)benzenesulfonamide], the 50% inhibitory concentration (IC50) in test [1] worked out at 47 nM. Moreover, the “Ratio of improving pain score (%)” value in test [2] is listed as “B (“B” when the rate was 31 to 60%)”.

As for `Cn1nccc1[C@H]1CCCCC[C@@H]1Oc1ccc(S(=O)(=O)Nc2ccncn2)c(F)c1F` (relative stereo) [Example 51, 2,3-Difluoro-4-{[(1S*,2R*)-2-(1-methyl-1H-pyrazol-5-yl)cycloheptyl]oxy}-N-(pyrimidin-4-yl)benzenesulfonamide], in test [1], the IC50 amounted to 750 nM. Further, in test [2], the “Ratio of improving pain score (%)” value was “B (“B” when the rate was 31 to 60%)”.

As for `Cc1cc(S(=O)(=O)Nc2ccncn2)ccc1O[C@H]1CCC[C@@H]1c1ccnn1C` (relative stereo) [Example 52, 3-Methyl-4-{[(1S*,2R*)-2-(1-methyl-1H-pyrazol-5-yl)cyclopentyl]oxy}-N-(pyrimidin-4-yl)benzenesulfonamide], the IC50 in test [1] was determined as 83 nM. Further, the “Ratio of improving pain score (%)” value in test [2] is given as “B (“B” when the rate was 31 to 60%)”.

Take `Cc1cc(S(=O)(=O)Nc2ccncn2)ccc1O[C@H]1CCCC[C@@H]1c1ccnn1C` (relative stereo) [Example 54, 3-Methyl-4-{[(1S*,2R*)-2-(1-methyl-1H-pyrazol-5-yl)cyclohexyl]oxy}-N-(pyrimidin-4-yl)benzenesulfonamide]: the half-maximal inhibitory concentration (IC50) in test [1] turned out to be 39 nM. The “Ratio of improving pain score (%)” value in test [2] was “C (“C” when the rate was 0 to 30%)”.

As to `Cn1nccc1[C@H]1CCCCC[C@@H]1Oc1ccc(S(=O)(=O)Nc2ccncn2)cc1C#N` (relative stereo) [Example 55, 3-Cyano-4-{[(1S*,2R*)-2-(1-methyl-1H-pyrazol-5-yl)cycloheptyl]oxy}-N-(pyrimidin-4-yl)benzenesulfonamide], the 50% inhibitory concentration (IC50) in test [1] was 39 nM. Besides, the “Ratio of improving pain score (%)” value in test [2] is “C (“C” when the rate was 0 to 30%)”.

Turning to `Cn1nccc1[C@H]1CCCC[C@@H]1Oc1ccc(S(=O)(=O)Nc2ccncn2)cc1C#N` (relative stereo) [Example 56, 3-Cyano-4-{[(1S*,2R*)-2-(1-methyl-1H-pyrazol-5-yl)cyclohexyl]oxy}-N-(pyrimidin-4-yl)benzenesulfonamide], the 50% inhibitory concentration (IC50) in test [1] is 250 nM. In test [2], the “Ratio of improving pain score (%)” value was “B (“B” when the rate was 31 to 60%)”.

Take `Cc1cc(S(=O)(=O)Nc2ccncn2)ccc1O[C@H]1CCCCC[C@@H]1c1ccnn1C` (relative stereo) [Example 57, 3-Methyl-4-{[(1S*,2R*)-2-(1-methyl-1H-pyrazol-5-yl)cycloheptyl]oxy}-N-(pyrimidin-4-yl)benzenesulfonamide]: the concentration for half-maximal inhibition (IC50) in test [1] was 75 nM. In addition, the “Ratio of improving pain score (%)” value in test [2] is on record as “B (“B” when the rate was 31 to 60%)”.

As to `Cn1nccc1[C@H]1CCCCC[C@@H]1Oc1ccc(S(=O)(=O)Nc2ccncn2)c(F)c1` (relative stereo) [Example 58, 2-Fluoro-4-{[(1S*,2R*)-2-(1-methyl-1H-pyrazol-5-yl)cycloheptyl]oxy}-N-(pyrimidin-4-yl)benzenesulfonamide], the concentration for half-maximal inhibition (IC50) in test [1] is 660 nM. The “Ratio of improving pain score (%)” value in test [2] is listed as “B (“B” when the rate was 31 to 60%)”.

On to `CCn1nccc1[C@H]1CCCC[C@@H]1Oc1cc(F)c(S(=O)(=O)Nc2ccncn2)c(F)c1` (relative stereo) [Example 59, 4-{[(1S*,2R*)-2-(1-Ethyl-1H-pyrazol-5-yl)cyclohexyl]oxy}-2,6-difluoro-N-(pyrimidin-4-yl)benzenesulfonamide], for which, in test [1], the 50% inhibitory concentration (IC50) came to 31 nM. Moreover, in test [2], the “Ratio of improving pain score (%)” value was “C (“C” when the rate was 0 to 30%)”.

For the molecule `O=S(=O)(Nc1ccncn1)c1c(F)cc(O[C@@H]2CCCC[C@H]2c2cn[nH]c2)cc1F` [Example 169, 2,6-Difluoro-4-{[(1R,2S)-2-(1H-pyrazol-4-yl)cyclohexyl]oxy}-N-(pyrimidin-4-yl)benzenesulfonamide], in test [1], the half-inhibitory concentration (IC50) is more than 10000 nM.

Take `Cc1cc(S(=O)(=O)Nc2ccncn2)c(F)cc1O[C@@H]1CCCC[C@H]1c1cn[nH]c1` [Example 170, 2-Fluoro-5-methyl-4-{[(1R,2S)-2-(1H-pyrazol-4-yl)cyclohexyl]oxy}-N-(pyrimidin-4-yl)benzenesulfonamide]: in test [1], the IC50 is more than 10000 nM.

Turning to `Cc1cc(S(=O)(=O)Nc2ccncn2)c(F)cc1O[C@H]1CCCC[C@@H]1c1cn[nH]c1` [Example 172, 2-Fluoro-5-methyl-4-{[(1S,2R)-2-(1H-pyrazol-4-yl)cyclohexyl]oxy}-N-(pyrimidin-4-yl)benzenesulfonamide], in test [1], the IC50 was 34 nM.
